Experimental data published in ChEMBL document CHEMBL1137815, “New cadinene sesquiterpenoids from the Formosan soft coral Xenia puerto-galerae” (2002).
Values after ≈ are worked out from the molar mass of the structure shown.

Tests used:
A549 = experiment: Cytotoxicity against human A549 cells by MTT method; format: functional; conditions: read-out: ED50 (the source's name)
P388 = experiment: Cytotoxicity against mouse P388 cells by MTT method; format: functional; conditions: read-out: ED50 (the source's name)

Row | Compound | EC50 (A549) | EC50 (P388)
1 | C=C(C)[C@H]1[C@@H]2C[C@@H](C)CC[C@H]2C(C)=C[C@H]1O [XENITORIN A] | 0.79 µg/mL (≈ 3.59 µM) | 
2 | C=C(C)[C@@H]1C(=O)C=C(C)[C@@H]2CC[C@H](C)C[C@@H]12 [XENITORIN B] | > 50 µg/mL | > 50 µg/mL
3 | C=C(C)[C@@H]1C(=O)C=C(C)[C@]2(O)CC[C@H](C)C[C@@H]12 [XENITORIN E] | 1.86 µg/mL (≈ 7.94 µM) | 3.69 µg/mL (≈ 15.7 µM)
4 | C=C(C)[C@@H]1C(=O)C=C(C)[C@@]2(O)CC[C@H](C)C[C@@H]12 [XENITORIN F] | > 50 µg/mL | > 50 µg/mL
5 | C=C(C)[C@@H]1C=C[C@](C)(O)[C@@H]2CC[C@H](C)C[C@H]21 [XENITORIN C] | > 50 µg/mL | > 50 µg/mL
6 | C=C(C)[C@@H]1[C@H](O)[C@@H]2O[C@]2(C)[C@@H]2CC[C@H](C)C[C@@H]12 [XENITORIN D] | > 50 µg/mL | > 50 µg/mL
